Results from patent publication US10385057B2, “Pyrazole compounds and methods of making and using same” (Lundbeck La Jolla Research Center, Inc., priority 2015, dated 2019).

Tests used:
FAAH = target: T1, FAAH (Mus musculus, UniProt O08914); assay: In vitro competitive activity-based protein profiling, mouse FAAH; format: biochemical; details: for inhibition at 1 µM: read-out: FAAH % inh. 1 μM (mouse)
T1 construct: mouse brain membrane fraction or cell lysates for mouse assays; from tissue
T1 sequence (O08914 1-579): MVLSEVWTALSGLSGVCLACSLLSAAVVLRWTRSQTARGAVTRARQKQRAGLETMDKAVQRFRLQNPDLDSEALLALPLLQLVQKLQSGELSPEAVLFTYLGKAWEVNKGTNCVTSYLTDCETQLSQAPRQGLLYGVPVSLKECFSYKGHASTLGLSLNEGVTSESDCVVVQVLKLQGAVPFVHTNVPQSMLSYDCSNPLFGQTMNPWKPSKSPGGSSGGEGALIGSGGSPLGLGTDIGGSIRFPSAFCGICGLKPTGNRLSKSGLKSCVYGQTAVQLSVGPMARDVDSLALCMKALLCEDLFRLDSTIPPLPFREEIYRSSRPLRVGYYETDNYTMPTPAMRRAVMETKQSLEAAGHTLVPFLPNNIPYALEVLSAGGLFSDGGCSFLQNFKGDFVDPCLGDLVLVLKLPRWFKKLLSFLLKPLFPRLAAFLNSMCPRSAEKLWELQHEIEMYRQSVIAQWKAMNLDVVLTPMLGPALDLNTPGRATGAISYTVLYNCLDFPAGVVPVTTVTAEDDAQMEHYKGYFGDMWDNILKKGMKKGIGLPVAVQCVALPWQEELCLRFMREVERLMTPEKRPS
In short: (§1)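 Mouse brain membranes or cell lysates (mouse) and human prefrontal cortex or cell membrane fractions (human), 1.0 mg/mL protein, preincubated with inhibitor 30 min at 37 °C, then FP-Rh or HT-01 probe 30 min at 37 °C. SDS-PAGE; MAGL and FAAH activity from in-gel fluorescence band intensity.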

MAGL = target: T2, MAGL (Mus musculus, UniProt O35678); assay: In vitro competitive activity-based protein profiling, mouse MAGL; format: biochemical; details: for inhibition at 1 µM: read-out: MAGL % inh. 1 μM (mouse)
T2 construct: mouse brain membrane fraction or cell lysates for mouse assays; from tissue
T2 sequence (O35678 1-303): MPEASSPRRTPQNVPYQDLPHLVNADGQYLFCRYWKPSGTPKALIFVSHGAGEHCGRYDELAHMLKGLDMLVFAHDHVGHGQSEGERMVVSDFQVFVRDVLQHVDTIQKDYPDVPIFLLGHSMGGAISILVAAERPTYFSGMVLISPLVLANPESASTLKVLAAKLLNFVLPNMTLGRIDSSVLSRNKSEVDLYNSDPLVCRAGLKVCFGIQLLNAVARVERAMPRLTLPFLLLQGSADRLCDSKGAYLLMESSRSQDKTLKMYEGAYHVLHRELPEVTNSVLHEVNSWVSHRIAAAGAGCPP
In short: as §1

## CN(Cc1ccc(-c2cccnn2)cc1C(F)(F)F)[C@@H]1C[C@@H]2CN(C(=O)n3cc(C(N)=O)cn3)C[C@@H]2C1 [Example 191, 1-(cis-5-(methyl(4-(pyridazin-3-yl)-2-(trifluoromethyl)benzyl)amino)octahydrocyclopenta[c]pyrrole-2-carbonyl)-1H-pyrazole-4-carboxamide]
FAAH
  inhibition at 1 µM: ≥ 75%
MAGL
  inhibition at 1 µM: ≥ 75%

## NC(=O)c1cnn(C(=O)N2CC3CN(Cc4cc(Cl)cc(C(F)(F)F)c4)CC3C2)c1 (stereo not shown) [Example 25, 1-(5-(3-chloro-5-(trifluoromethyl)benzyl)octahydropyrrolo[3,4-c]pyrrole-2-carbonyl)-1H-pyrazole-4-carboxamide]
FAAH
  IC50: ≤ 100 nM
  inhibition at 1 µM: ≥ 75%
MAGL
  IC50: ≤ 100 nM
  inhibition at 1 µM: ≥ 75%

## CC(C)c1ccc(CN2CC3CN(C(=O)n4cc(Cl)cn4)CC3C2)c(N2CCOCC2)c1 (stereo not shown) [Example 106, (4-chloro-1H-pyrazol-1-yl)(5-(4-isopropyl-2-morpholinobenzyl)hexahydropyrrolo[3,4-c]pyrrol-2(1H)-yl)methanone]
FAAH
  IC50: 1000 to 10000 nM
  inhibition at 1 µM: 50 to 75%
MAGL
  IC50: ≤ 100 nM
  inhibition at 1 µM: ≥ 75%

## O=C(c1cnn(C(=O)N2CC3CN(Cc4cc(Cl)ccc4Cl)CC3C2)c1)N1CCCC1 (stereo not shown) [Example 22, (5-(2,5-dichlorobenzyl)hexahydropyrrolo[3,4-c]pyrrol-2(1H)-yl)(4-(pyrrolidine-1-carbonyl)-1H-pyrazol-1-yl)methanone]
FAAH
  inhibition at 1 µM: ≥ 75%
MAGL
  inhibition at 1 µM: ≥ 75%

## O=C(c1cnn(C(=O)N2CC3CN(Cc4cccc(Cl)c4)CC3C2)c1)N1CCCCC1 (stereo not shown) [Example 3, (5-(3-chlorobenzyl)hexahydropyrrolo[3,4-c]pyrrol-2(1H)-yl)(4-(piperidine-1-carbonyl)-1H-pyrazol-1-yl)methanone]
FAAH
  IC50: 100 to 1000 nM
  inhibition at 1 µM: ≥ 75%
MAGL
  IC50: 1000 to 10000 nM
  inhibition at 1 µM: 50 to 75%

## O=C(N1CC2CN(Cc3ccc(C(F)(F)F)cc3N3CCCC3)CC2C1)n1cc(Cl)cn1 (stereo not shown) [Example 110, (4-chloro-1H-pyrazol-1-yl)(5-(2-(pyrrolidin-1-yl)-4-(trifluoromethyl)benzyl)hexahydropyrrolo[3,4-c]pyrrol-2(1H)-yl)methanone]
FAAH
  IC50: 100 to 1000 nM
  inhibition at 1 µM: ≥ 75%
MAGL
  IC50: ≤ 100 nM
  inhibition at 1 µM: ≥ 75%

## CNC(=O)c1cnn(C(=O)N2CC3CN(Cc4ccc(C(F)(F)F)cc4)CC3C2)c1 (stereo not shown) [Example 19, N-methyl-1-(5-(4-(trifluoromethyl)benzyl)octahydropyrrolo[3,4-c]pyrrole-2-carbonyl)-1H-pyrazole-4-carboxamide]
FAAH
  IC50: ≤ 100 nM
  inhibition at 1 µM: ≥ 75%
MAGL
  IC50: 100 to 1000 nM
  inhibition at 1 µM: ≥ 75%

## CNC(=O)c1cnn(C(=O)N2CC3CN(Cc4cc(Cl)cc(C(F)(F)F)c4)CC3C2)c1 (stereo not shown) [Example 26, 1-(5-(3-chloro-5-(trifluoromethyl)benzyl)octahydropyrrolo[3,4-c]pyrrole-2-carbonyl)-N-methyl-1H-pyrazole-4-carboxamide]
FAAH
  inhibition at 1 µM: ≥ 75%
MAGL
  inhibition at 1 µM: ≥ 75%

## O=C(c1cnn(C(=O)N2CC3CN(Cc4ccc(N5CCOCC5)cc4C(F)(F)F)CC3C2)c1)N1CCOCC1 (stereo not shown) [Example 13, (4-(morpholine-4-carbonyl)-1H-pyrazol-1-yl)(5-(4-morpholino-2-(trifluoromethyl)benzyl)hexahydropyrrolo[3,4-c]pyrrol-2(1H)-yl)methanone]
FAAH
  inhibition at 1 µM: ≥ 75%
MAGL
  inhibition at 1 µM: ≥ 75%

## O=C(c1cnn(C(=O)N2CCC3(CCN(Cc4cc(Cl)cc(C(F)(F)F)c4)C3)C2)c1)N1CCOCC1 (stereo not shown) [Example 35, (1-(7-(3-chloro-5-(trifluoromethyl)benzyl)-2,7-diazaspiro[4.4]nonane-2-carbonyl)-1H-pyrazol-4-yl)(morpholino)methanone]
FAAH
  inhibition at 1 µM: 25 to 50%
MAGL
  inhibition at 1 µM: ≥ 75%

## CN(Cc1ccc(C(F)(F)F)cc1)[C@@H]1C[C@@H]2CN(C(=O)n3cc(C(=O)N4CCOCC4)cn3)C[C@@H]2C1 [Example 53, (cis-5-(methyl(4-(trifluoromethyl)benzyl)amino)hexahydrocyclopenta[c]pyrrol-2(1H)-yl)(4-(morpholine-4-carbonyl)-1H-pyrazol-1-yl)methanone]
FAAH
  inhibition at 1 µM: ≥ 75%
MAGL
  inhibition at 1 µM: 25 to 50%

## O=C(N1CC2CN(Cc3ccccc3N3CCCC3)CC2C1)n1cc(C(F)(F)F)cn1 (stereo not shown) [Example 156, (5-(2-(pyrrolidin-1-yl)benzyl)hexahydropyrrolo[3,4-c]pyrrol-2(1H)-yl)(4-(trifluoromethyl)-1H-pyrazol-1-yl)methanone]
FAAH
  IC50: 100 to 1000 nM
  inhibition at 1 µM: ≥ 75%
MAGL
  IC50: ≤ 100 nM
  inhibition at 1 µM: ≥ 75%

## CNC(=O)c1cnn(C(=O)N2CC3CN(Cc4cc(Cl)ccc4Cl)CC3C2)c1 (stereo not shown) [Example 21, 1-(5-(2,5-dichlorobenzyl)octahydropyrrolo[3,4-c]pyrrole-2-carbonyl)-N-methyl-1H-pyrazole-4-carboxamide]
FAAH
  IC50: ≤ 100 nM
  inhibition at 1 µM: ≥ 75%
MAGL
  IC50: 100 to 1000 nM
  inhibition at 1 µM: ≥ 75%

## Cc1ccccc1CN1CC2CN(C(=O)n3cc(C(F)(F)F)cn3)CC2C1 (stereo not shown) [Example 153, (5-(2-methylbenzyl)hexahydropyrrolo[3,4-c]pyrrol-2(1H)-yl)(4-(trifluoromethyl)-1H-pyrazol-1-yl)methanone]
FAAH
  IC50: ≤ 100 nM
  inhibition at 1 µM: ≥ 75%
MAGL
  IC50: ≤ 100 nM
  inhibition at 1 µM: ≥ 75%

## O=C(N1CCC2(CCN(Cc3ccccc3F)C2)C1)n1cc(C(F)(F)F)cn1 (stereo not shown) [Example 177, (7-(2-fluorobenzyl)-2,7-diazaspiro[4.4]nonan-2-yl)(4-(trifluoromethyl)-1H-pyrazol-1-yl)methanone]
FAAH
  inhibition at 1 µM: ≥ 75%
MAGL
  inhibition at 1 µM: ≥ 75%

## CN(Cc1ccccc1C(F)(F)F)[C@@H]1C[C@@H]2CN(C(=O)n3cc(C(=O)N4CCN(C5CC5)CC4)cn3)C[C@@H]2C1 [Example 94, (4-cyclopropylpiperazin-1-yl)(1-(cis-5-(methyl(2-(trifluoromethyl)benzyl)amino)octahydrocyclopenta[c]pyrrole-2-carbonyl)-1H-pyrazol-4-yl)methanone]
FAAH
  inhibition at 1 µM: 0 to 25%
MAGL
  inhibition at 1 µM: ≥ 75%

## CN(Cc1ccc(C(F)(F)F)cc1)[C@H]1C[C@@H]2CN(C(=O)n3cc(Cl)cn3)C[C@@H]2C1 [Example 78, (4-chloro-1H-pyrazol-1-yl)(trans-5-(methyl(4-(trifluoromethyl)benzyl)amino)hexahydrocyclopenta[c]pyrrol-2(1H)-yl)methanone]
FAAH
  IC50: ≤ 100 nM
  inhibition at 1 µM: ≥ 75%
MAGL
  IC50: ≤ 100 nM
  inhibition at 1 µM: ≥ 75%

## CNC(=O)c1cnn(C(=O)N2C[C@H]3C[C@@H](N(C)Cc4ccccc4C(F)(F)F)C[C@H]3C2)c1 [Example 91, N-methyl-1-(cis-5-(methyl(2-(trifluoromethyl)benzyl)amino)octahydrocyclopenta[c]pyrrole-2-carbonyl)-1H-pyrazole-4-carboxamide]
FAAH
  inhibition at 1 µM: ≥ 75%
MAGL
  inhibition at 1 µM: 50 to 75%

## O=C(N1CC2CN(Cc3ccc(CN4CCOCC4)cc3)CC2C1)n1cc(Cl)cn1 (stereo not shown) [Example 122, (4-chloro-1H-pyrazol-1-yl)(5-(4-(morpholinomethyl)benzyl)hexahydropyrrolo[3,4-c]pyrrol-2(1H)-yl)methanone]
FAAH
  IC50: 100 to 1000 nM
  inhibition at 1 µM: ≥ 75%
MAGL
  IC50: 100 to 1000 nM
  inhibition at 1 µM: ≥ 75%

## CN(Cc1cccc(N2CCOCC2)c1)[C@@H]1C[C@@H]2CN(C(=O)n3cc(Cl)cn3)C[C@@H]2C1 [Example 81, (4-chloro-1H-pyrazol-1-yl)(cis-5-(methyl(3-morpholinobenzyl)amino)hexahydrocyclopenta[c]pyrrol-2(1H)-yl)methanone]
FAAH
  IC50: ≤ 100 nM
  inhibition at 1 µM: ≥ 75%
MAGL
  IC50: 1000 to 10000 nM
  inhibition at 1 µM: 25 to 50%

## CNC(=O)c1cnn(C(=O)N2CCC3(CCN(Cc4ccc(Cl)cc4)C3)C2)c1 (stereo not shown) [Example 38, 1-(7-(4-chlorobenzyl)-2,7-diazaspiro[4.4]nonane-2-carbonyl)-N-methyl-1H-pyrazole-4-carboxamide]
FAAH
  IC50: 100 to 1000 nM
  inhibition at 1 µM: ≥ 75%
MAGL
  IC50: 1000 to 10000 nM
  inhibition at 1 µM: 0 to 25%

## CN(Cc1cccc(Oc2ccccc2)c1)[C@H]1C[C@@H]2CN(C(=O)n3cc(Cl)cn3)C[C@@H]2C1 [Example 162, (4-chloro-1H-pyrazol-1-yl)(trans-5-(methyl(3-phenoxybenzyl)amino)hexahydrocyclopenta[c]pyrrol-2(1H)-yl)methanone]
FAAH
  IC50: ≤ 100 nM
  inhibition at 1 µM: ≥ 75%
MAGL
  IC50: ≤ 100 nM
  inhibition at 1 µM: ≥ 75%
